Measured values published in US20220387339A1, “SUPERFINE COMPOUNDS AND PRODUCTION THEREOF” (Esolate Ltd, priority 2019, published 2022).
Values after ≈ are worked out from the molar mass of the structure shown.

Assays:
[1] = Solubility of cyclodextrins in supercritical CO2 under process conditions (Example 3); details: for solubility in supercritical CO2: experimental conditions: 40° C., 3,500 psi
[2] = isolates currently available; cited from earlier work
[3] = Visual solubility in water before and after processing (FIGS. 3-4); type: physicochemical; details: FIGS. 3 and 4
Description: The crystals are insoluble in acid and in water.

[4] = Relative bioavailability test: CBD concentration in water by HPLC-UV (Example 6); type: physicochemical; details: after 32 hours elapsed time, 0.45 μm filtered
Protocol: Relative bioavailability tests of the cannabinoid ultrafine nanoparticles obtained as described in Example 4 (test samples) as compared to cannabinoid isolates in water (control samples) were performed using a high performance liquid chromatography (HPLC) separator equipped with a UV detector to determine the concentration of CBD in each sample. Control samples were prepared by filtering 1 ml of each sample through a 0.45 μm filter into a 2 ml HPLC vial and 1 ml of methanol (MeOH) was added to each sample vial. HPLC mobile phase was comprised of 65% acetonitrile and 35% water. A flow rate of 1 ml per minute led to the elution of CBD after approximately 4.5 minutes.
A percentage area was measured after 32 hours elapsed time, which represents the amount of CBD in each sample relative to the background signal created by the MeOH in each sample.

[5] = Visual solubility in simulated stomach conditions (Example 5); type: physicochemical
Protocol: Bioavailability of the cannabinoid ultrafine nanoparticles obtained as described in Example 4 was assessed by visually evaluating the solubility of the fine nanoparticles in simulated stomach conditions. 0.5 g of NaCl was added to a 0.155 M solution of HCl in water to replicate stomach acidic conditions. 10 mg of the fine nanoparticles, 10 mg of the isolates in crystalline form, and 10 mg of the distillates were each placed in vials containing 10 ml of the acidic solution and incubated for 10 hours at 37° C. At the end of the 10-hour period, only minimal solubility of the preparations was observed. Additional 10 ml of the acidic solution were added, and the mixtures were incubated for 10 more hours at 37° C. At the end of the 20-hour period, the cannabinoid nanoparticles dissolved in the acidic solution.

CC(=O)OC[C@H]1O[C@@H]2O[C@H]3[C@H](OC(C)=O)[C@@H](OC(C)=O)[C@@H](O[C@H]4[C@H](OC(C)=O)[C@@H](OC(C)=O)[C@@H](O[C@H]5[C@H](OC(C)=O)[C@@H](OC(C)=O)[C@@H](O[C@H]6[C@H](OC(C)=O)[C@@H](OC(C)=O)[C@@H](O[C@H]7[C@H](OC(C)=O)[C@@H](OC(C)=O)[C@@H](O[C@H]8[C@H](OC(C)=O)[C@@H](OC(C)=O)[C@@H](O[C@H]1[C@H](OC(C)=O)[C@H]2OC(C)=O)O[C@@H]8COC(C)=O)O[C@@H]7COC(C)=O)O[C@@H]6COC(C)=O)O[C@@H]5COC(C)=O)O[C@@H]4COC(C)=O)O[C@@H]3COC(C)=O [ABCD, β-cyclodextrin heneicosaacetate]
solubility in supercritical CO2 [1]: 1.3 wt. %

C=C(C)[C@@H]1CCC(C)=C[C@H]1c1c(O)cc(CCCCC)cc1O [CBD isolate, cannabidiol]
solubility in water [2]: 12.6 µg/mL (≈ 40.1 µM) | solubility in water (visual) [3]: insoluble | percentage area (amount of CBD relative to MeOH background signal) [4]: 0.7706% | solubility in acidic solution after 20 hours (visual) ([5]; 10 mg in 20 ml 0.155 M HCl with NaCl, 37° C., 20 hours): complete insolubility | solubility in acid (visual) ([5]; acidic solvent resembling stomach conditions, FIGS. 3 and 5): insoluble

Cyclodextrin
solubility under the process conditions (supercritical CO2) ([1]; 40° C., 3,500 psi): insoluble

α-cyclodextrin exadeacetate [AACD]
solubility in supercritical CO2 [1]: 1.1 wt. %
